Assay results: patent publication US6713043B2 (priority 1996, dated 2004)
Values after ≈ are worked out from the molar mass of the structure shown.

System: M. tuberculosis (21 clinical and CDC strains, pan-sensitive and multidrug resistant)
Experiment: microbe, parasite or virus in culture
Format: cell-based, Mycobacterium tuberculosis

Q: Which “difference in sensitivity among the 21 strains” value does the source give for Cc1ccc(C)c(OCCCC(C)(C)C(=O)O)c1 [GFZ, Gemfibrozil] here?
A: The value was “No greater than a two fold difference”.

Q: What about the MIC (Mycobacterium tuberculosis, 504 h, read-out: MIC (GFZ concentration at which no growth was seen)) of the same compound?
A: The MIC was 100 to 200 µg/mL (≈ 399 to 799 µM).
